Reference: patent US20250213560A1, “NITROGEN-CONTAINING HETEROCYCLIC COMPOUNDS HAVING PHENYL GROUP AND USES THEREOF” (BNH RESEARCH CO., LTD., priority 2022, published 2025)

Key:
[1] = test system: 293T cells; test: Cytotoxicity test (CCK-8 cell viability) in 293T cells; assay type: cell-based, human
How it was run: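 293T cells plated 24 h, then exposed to serial compound concentrations for 24 h (six replicates). Viability by CCK-8 ([…], OD 450 nm), blank-subtracted and expressed as percent of vehicle control; IC50 calculated from these values.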

[2] = test system: APP/PS1 mice; test: Barrel cortex TC potency and GABA/AMPA ratio in Alzheimer's model mice; assay type: in vivo, mouse
Protocol: All electrophysiological experiments were conducted at 27 to 29° C. For electrophysiological experiments, electrodes with […] resistance were used and stimuli were applied to the ventral posteromedial nucleus (VPM) using a concentric bipolar electrode (FHC, Bowdoin, ME). The somatosensory cortex was identified by the presence of barrels under 4×magnification and differential interference contrast (DIC) optics, and by the ability to evoke short and constant latency field excitatory postsynaptic potentials (fEPSPs) by VPM stimulation. […]
For the minimal stimulation protocol (Potency), VB thalamic stimulation intensity was adjusted to find the lowest intensity that elicited a mixture of synaptic responses and failures. Failure rate was calculated as the number of failures/total number of trials. Potency was calculated as the mean EPSC peak amplitude excluding failures (see Chittajallu & Isaac, 2010, Emergence of cortical inhibition by coordinated sensory-driven plasticity at distinct synaptic loci, DOI: 10.1038/nn.2639; see Isaac et al., 1997, Silent Synapses during Development of Thalamocortical Inputs, https://doi.org/10.1016/S08966273 (00) 80267-6; and see Stevens & Wang, 1995, Facilitation and depression at single central synapses, DOI: 10.1016/08966273 (95) 90223-6). […]

[3] = test system: HDAC 1 to 9, and 11; test: HDAC catalytic activity assay (fluorogenic substrate, 10-dose IC50); assay type: biochemical; conditions: 3-fold serial dilution starting at 100 μM, duplicates
Protocol: The compound was resuspended in 100 mM DMSO and tested in a 10-dose IC50 with 3-fold serial dilution starting at 100 μM against HDACs 1-9, and 11. As reference compounds, Trichostatin A (TSA) and TMP269 were tested in a 10-dose IC50 with 3-fold serial dilution starting at 10 μM or 1 μM.
10 μM Fluorogenic peptide from p53 residues 379-382 (RHKK (Ac) AMC) was used for the substrate for HDAC 1, 2, 3, and 6. 50 μM Fluorogenic HDAC Class2a Substrate (Trifluoroacetyl Lysine) was used for the substrate for HDAC 4, 5, 7, 9, and 11. 100 μM Fluorogenic peptide from p53 residues 379-382 (RHK (Ac) K (Ac) AMC) was used for the substrate for HDAC8.
IC50 values were calculated using the GraphPad Prism 4 program based on a sigmoidal dose-response equation and the blank (DMSO) value concentration was entered as 1.00E-12 M for curve fitting.
The experiments were performed in duplicates.

inhibitory effect on HDAC catalytic activities (10-dose IC50) [3]: did not show any inhibitory effect
Structure (SMILES): C[C@H]1CC[C@@H](C(=O)O)CN1C(=O)Cc1ccc(-c2cncnc2)cc1 [BnH12003, (3R,6S)-6-methyl-1-(2-(4-(pyrimidin-5-yl)phenyl)acetyl) piperidine-3-carboxylic acid]
Cell viability test results (CCK) 10 uM ([1]; 293T cell line, 10 uM): 99%<
Cell viability test results (CCK) 100 uM ([1]; 293T cell line, 100 uM): 90%<
cell viability ([1]; 293T, 0, 0.1, 1, 10, 100 μM, 24 hours, CCK-8): no significant change in cell viability
GABA/AMPA ratio (balance of excitation/inhibition) ([2]; barrel cortex layer 4, Os pump 3 μM): maintaining the balance of excitation/inhibition
excitatory TC synaptic potential (TC potency) ([2]; barrel cortex layer 4, Os pump, BnH12003 3 μM, solanezumab 200 μg): increased the excitatory TC synaptic potential
